Results from patent publication US11840521B2, “Modulators of Mas-related G-protein receptor X4 and related products and methods” (Escient Pharmaceuticals, Inc., priority 2019, dated 2023).

Biological target: MRGPRX4 (Homo sapiens, UniProt Q96LA9)
Assay: MRGPR X4 antagonist activity, IP-One Gq HTRF assay in stably transfected HEK cells (versus agonist bilirubin, deoxycholic acid, conjugated bilirubin, urobilin, obeticholic acid or BAR502)
Assay type: cell-based
Set-up: expressed in transfected cells; host or cells: HEK cells, stably transfected
Details: versus 10 μM Bilirubin agonist; HEK cells expressing human MRGPR X4; read-out: MRGPR4 Antagonist Activity
Description: HEK cells stably transfected to express human MRGPR X4 were maintained in an incubator at 37° C. with 5% CO2 and grown in DMEM media with 10% fetal bovine serum (FBS) and 1% each of sodium pyruvate, Glutamax, penicillin/streptomycin, and Geneticin. HEK cells stably transfected to express mouse MRGPR A1 were maintained in the same incubator and grown in DMEM media with 10% FBS, 1% each of sodium pyruvate, Glutamax, penicillin/streptomycin, Geneticin, and 2.2 mg/mL Hygromycin.
Cells were plated in a 384-well assay plate at 20,000 cells per well in 12 μL of Opti-MEM and kept in an incubator overnight. On the day of the assay, compounds solubilized at 10 mM in DMSO were added as a 10-point curve (10 uM final top concentration with 1:3 serial dilutions) using a Tecan D300E digital dispenser. […] Final concentrations of DMSO were kept consistent across the plate. Plates were incubated in the dark for 1 h at 37° C. and then for 30 minutes at room temperature. IP-1 standards and HTRF detection reagents were added according to the IP-One—Gq Kit purchased from Cisbio (part number 62IPAPEJ) and incubated in the dark for 1 h at room temperature. The plate was read on a Molecular Devices SpectraMax iD5 plate reader. The HTRF ratio was calculated from the raw data and graphed using GraphPad Prism to calculate an IC50 value for each compound.

Sequence of MRGPRX4 (Q96LA9 whole entry): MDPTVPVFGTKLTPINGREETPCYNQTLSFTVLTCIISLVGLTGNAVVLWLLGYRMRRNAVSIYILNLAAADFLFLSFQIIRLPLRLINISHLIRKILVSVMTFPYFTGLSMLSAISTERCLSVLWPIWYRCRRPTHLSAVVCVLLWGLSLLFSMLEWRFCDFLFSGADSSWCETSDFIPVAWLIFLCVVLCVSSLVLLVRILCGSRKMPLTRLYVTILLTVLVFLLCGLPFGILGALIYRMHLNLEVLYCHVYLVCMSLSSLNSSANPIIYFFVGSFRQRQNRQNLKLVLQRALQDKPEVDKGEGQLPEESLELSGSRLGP

| IC50 [nM] | SMILES |
| --- | --- |
| < 100 | O=C(O)c1cc(Cl)cc(COc2ccc(C(F)(F)F)cc2Cl)c1 [Compound 1-82] |
| 500 to 1000 | O=C(O)c1cccc(COc2ccc3ccncc3c2)c1 [Compound 1-98] |
| 100 to 500 | O=C(NCc1ccccc1)c1cccc(COc2ccc(C(F)(F)F)cc2Cl)c1 [Compound 52-1, N-benzyl-3-((2-chloro-4-(trifluoromethyl)phenoxy)methyl)benzamide] |
| < 100 | O=C(O)c1cc(C2CC2)cc(COc2ccc(C(F)(F)F)cc2Cl)n1 [Compound 8-3] |
| 500 to 1000 | O=C(O)c1cc(COc2ccc(Cl)cc2Cl)ccc1Cl [Compound 1-44] |
| > 2500 | Cc1cc(OCc2cccc(C(=O)O)c2)ccc1C(F)(F)F [Compound 1-138] |
| 100 to 500 | CCCCNC(=O)c1cccc(COc2ccc(C(F)(F)F)cc2Cl)c1 [Compound 52-7] |
| < 100 | N#Cc1cc(COc2ccc(Cl)c(Cl)c2Cl)cc(C(=O)O)c1 [Compound 32-3] |
| 500 to 1000 | COc1ccc(OCc2cccc(C(=O)O)c2)c(F)c1F [Compound 1-96] |
| 1000 to 2500 | Cc1cc(C(C)(C)C)ccc1OCc1cccc(C(=O)O)c1 [Compound 1-108] |
| < 100 | O=C(O)c1cccc(COc2ccc(Cl)cc2Cl)c1Cl [Compound 4-9] |
| 100 to 500 | O=C(O)c1cccc(COc2ccc(Br)cc2)c1 [Compound 1-110] |
| 100 to 500 | NCc1cccc(COc2ccc(Cl)cc2Cl)c1 [Compound 7-1, (3-((2,4-dichlorophenoxy)methyl)phenyl)methanamine] |
| < 100 | O=C(O)c1cccc(COc2ccc(C(F)(F)F)cc2)c1F [Compound 4-28] |
| 100 to 500 | FC(F)(F)c1cc(Cl)ccc1OCc1cccc(-c2nnn[nH]2)c1 [Compound 17-3] |
| < 100 | O=C(O)c1c(F)ccc(COc2ccc(C(F)(F)F)cc2Cl)c1F [Compound 1-136] |
| < 100 | Cc1cc(CNc2ccc(C(F)(F)F)cc2Cl)nc(C(=O)O)c1 [Compound 57-1, 6-(((2-chloro-4-(trifluoromethyl)phenyl)amino)methyl)-4-methylpicolinic acid] |
| < 100 | O=C(O)c1cccc(CNc2ccc(C(F)(F)F)cc2Cl)c1 [Compound 12-4] |
| 100 to 500 | O=C(O)c1cccc(COc2cccc(C(F)(F)F)c2Cl)c1 [Compound 1-79] |
| 500 to 1000 | O=C(c1cccc(COc2ccc(C(F)(F)F)cc2Cl)c1)N1CC(O)C1 [Compound 52-18] |

| IC50 [nM] | SMILES |
| --- | --- |
| 1000 to 2500 | COC(=O)c1ccc(COc2ccc(Cl)cc2Cl)s1 [Compound 1-14] |
| 500 to 1000 | O=S(=O)(O)c1cccc(COc2ccc(C(F)(F)F)cc2Cl)c1 [Compound 40-1, 3-((2-chloro-4-(trifluoromethyl)phenoxy)methyl)benzenesulfonic acid] |
| 100 to 500 | O=C(O)c1cc(F)cc(COc2ccc(OC(F)(F)F)cc2Cl)c1 [Compound 1-121] |
| 500 to 1000 | O=C(O)c1cccc(COc2ccc(C(F)(F)F)cc2C2CC2)c1 [Compound 34-1, 3-((2-cyclopropyl-4-(trifluoromethyl)phenoxy)methyl)benzoic acid] |
| < 100 | O=C(O)CNC(=O)c1cccc(COc2ccc(C(F)(F)F)cc2Cl)c1 [Compound 54-2] |
| 100 to 500 | O=C(O)c1cccc(COc2ccc(Cl)cc2C(F)(F)F)c1 [Compound 1-28] |
| 100 to 500 | O=C(O)c1cccc(COc2cccc(Br)c2Cl)c1 [Compound 1-142] |
| 500 to 1000 | Cc1ccc(OCc2cccc(C(=O)O)c2)c(Cl)c1 [Compound 3-2, 3-((2-chloro-4-methylphenoxy)methyl)benzoic acid] |
| < 100 | O=C(O)c1cccc(COc2ccc(OC(F)(F)F)cc2Cl)c1 [Compound 1-103] |
| < 100 | O=C(O)c1nc(COc2ccc(C(F)(F)F)c(Cl)c2)ccc1F [Compound 4-19] |
| < 100 | O=C(O)c1cccc(CNc2ccc(C(F)(F)F)cc2Cl)n1 [Compound 12-3] |
| > 2500 | O=C(O)c1cccc(COc2c(Cl)cccc2Cl)c1 [Compound 1-25] |
| > 2500 | NC(=O)c1cccc(COc2cccc(Cl)c2Cl)c1 [Compound 13-1, 3-((2,3-dichlorophenoxy)methyl)benzamide] |
| 1000 to 2500 | NCCNC(=O)c1cccc(COc2ccc(C(F)(F)F)cc2Cl)c1 [Compound 53-2] |
| 500 to 1000 | Nc1cccc(COc2ccc(C(F)(F)F)cc2Cl)c1 [Compound 65-1, 3-((2-chloro-4-(trifluoromethyl)phenoxy)methyl)aniline] |
| < 100 | O=C(O)c1cccc(COc2ccc(Cl)cc2C(F)(F)F)c1F [Compound 1-62] |
| 1000 to 2500 | CNC(=O)c1ccc(OCc2cccc(C(=O)O)c2)cc1 [Compound 1-152] |
| 100 to 500 | Cc1cc(-n2cccc2)ccc1OCc1cccc(C(=O)O)c1F [Compound 4-27] |
| 500 to 1000 | COC(=O)c1cccc(COc2ccc(C(F)(F)F)cc2Cl)c1F [Compound 1-117] |
| 500 to 1000 | O=C(O)c1cc(COc2ccc(C(F)(F)F)cc2Cl)cc(-c2ccccc2)c1 [Compound 8-4] |

| IC50 [nM] | SMILES |
| --- | --- |
| 1000 to 2500 | COC(=O)c1cccc(COc2ccc(C#N)cc2Cl)c1 [Compound 1-3] |
| < 100 | O=C(O)c1cccc(COc2ccc(C(F)(F)F)c(Cl)c2)c1F [Compound 4-15] |
| 100 to 500 | O=C(O)c1cccc(COc2ccc(C(F)(F)F)cc2)c1 [Compound 1-41] |
| 100 to 500 | CNCc1cccc(COc2ccc(C(F)(F)F)cc2Cl)c1 [Compound 63-1, 1-(3-((2-chloro-4-(trifluoromethyl)phenoxy)methyl)phenyl)-N-methylmethanamine] |
| < 100 | COC(=O)c1cccc(COc2ccc3ccccc3c2)n1 [Compound 1-12] |
| 1000 to 2500 | Cc1ccc(OCc2cccc(C(=O)O)c2)c(F)c1 [Compound 1-77] |
| 500 to 1000 | CNC(=O)CNC(=O)c1cccc(COc2ccc(C(F)(F)F)cc2Cl)c1 [Compound 52-27] |
| < 100 | CCc1cc(COc2ccc3ccccc3c2)nc(C(=O)O)c1 [Compound 42-1, 4-ethyl-6-((naphthalen-2-yloxy)methyl)picolinic acid] |
| 100 to 500 | O=C(O)c1cccc(COc2ccc(C3CC3)cc2Cl)c1 [Compound 1-122] |
| < 100 | Cc1cc(COc2ccc(OC(F)(F)F)cc2Cl)cc(C(=O)O)c1 [Compound 4-14] |
| 500 to 1000 | O=C(O)c1ccc(COc2ccc(Cl)cc2Cl)cc1 [Compound 1-113] |
| > 2500 | O=C(O)Cc1cccc(COc2ccc(Cl)cc2Cl)c1 [Compound 64-1, 2-(3-((2,4-dichlorophenoxy)methyl)phenyl)acetic acid] |
| 1000 to 2500 | O=C(O)c1cccc(COc2ccc(C3CC3)cc2)c1 [Compound 1-46] |
| 1000 to 2500 | CCOc1ccccc1OCc1cccc(C(=O)O)c1 [Compound 1-84] |
| 100 to 500 | COC(=O)c1cccc(COc2cccc(F)c2)c1 [Compound 1-5] |
| 500 to 1000 | Cc1cc(OCc2cccc(C(=O)O)c2)cc(C)c1Cl [Compound 1-53] |
| 1000 to 2500 | N#Cc1ccc(COc2ccc(Cl)cc2Cl)cc1C(=O)O [Compound 5-2] |
| 100 to 500 | O=C(O)c1cc(COc2ccc(C(F)(F)F)cc2Cl)ccn1 [Compound 1-137] |
| < 100 | O=C(O)c1cccc(COc2ccc3ccccc3c2)c1F [Compound 1-58] |
| < 100 | Cc1cc(COc2ccc3ccccc3c2)nc(C(=O)O)c1 [Compound 41-1, 4-methyl-6-((naphthalen-2-yloxy)methyl)picolinic acid] |
